We go through 3 compounds from patent US12227533B2, “Crystalline forms and methods of producing crystalline forms of a compound” (Viking Therapeutics, Inc., priority 2018, dated 2025).

Common to all, as to type: physicochemical
Data set [1] can be described thus: Storage in humidity chamber at 96% r.h., solid form checked by XRPD. Conditions: for solid form by XRPD after storing in humidity chamber: 96% r.h. The procedure: Desolvation of the solvates tends to produce the amorphous form.
(§1) (approx. ±0.1%). After storing for 3 days at 96% r.h. at room temperature (Test 49), FIG. 29a, and at 40° C. […] The water uptake measured by the Karl Fischer method was very low (<0.2%). […] The broad background in the XRPD diagram, FIG. 26, is due to water remaining in the sample after careful drying at room temperature following filtration of the suspension. The Karl Fischer result indicates 45% water content.

Data set [2] is described as follows: Measurement of the approximate solubility at ambient temperature. Conditions: organic solvent or mixture, 23° C. The procedure:
In some embodiments, to determine the approximate solubility at room temperature, solvent was added in steps to the solid material. After every addition, the sample was well stirred. The addition of solvent was continued until complete dissolution or until 20 ml of solvent was added.
In other embodiments, aliquots of the test solvent were added to an accurately weighed amount of the compound of Formula I in small increments (usually 100-1000 μL), with sonication until complete dissolution was obtained, if possible. Dissolution was determined visually. The actual solubilities may be higher than reported due to slow dissolution rates or the use of excess solvent. The approximate solubility was determined in mg/mL to the nearest whole number.
The approximate solubility at ambient temperature must be known in order to carry out systematic crystallization experiments.

Data set [3] is described as follows: Dynamic vapor sorption (DVS). The procedure:
The sample (9.869 mg) was placed on a Pt pan, and the sample was allowed to equilibrate at 25° C. at 50% relative humidity (r.h.) before starting a pre-defined humidity program. The predefined humidity programs include 1.0 hours 50%, from 50% r.h. to 0% r.h.; 5% r.h. per hour, 5 hours at 0% r.h., from 0% r.h. to 93% r.h.; 5% r.h. per hour, 5 hours at 93% r.h., from 93% r.h. to 50% r.h.; and 5% r.h. per hour, 1 hours at 50% r.h.
as §1

The nature of data set [4]: Karl Fischer moisture analysis after humidity storage. The note with it: after storing 3 days at 96% r.h. As to the method: Karl Fischer moisture analyses were carried out according to standard procedures. […] (approx. ±0.1%). After storing for 3 days at 96% r.h. at room temperature (Test 49), FIG. 29a, and at 40° C. […] The water uptake measured by the Karl Fischer method was very low (<0.2%). […] The broad background in the XRPD diagram, FIG. 26, is due to water remaining in the sample after careful drying at room temperature following filtration of the suspension. The Karl Fischer result indicates 45% water content.

Data set [5] is described as follows: Phase equilibration experiment in water, solid form checked by XRPD. The note with it: stirring 3 days, 23° C. (room temperature). As to the method:
as §1

Data set [6] in a line: Phase equilibration experiments in EtOAc/heptane 1:7 v/v. Conditions: 3 days.

Values after ≈ are worked out from the molar mass of the structure shown.

In the case of `Cc1cc(OC[P@@]2(=O)OCC[C@@H](c3cccc(Cl)c3)O2)cc(C)c1Cc1ccc(O)c(C(C)C)c1` [THF solvate], in data set [1] (23° C. (room temperature), 8 weeks), the “solid form by XRPD after storing in humidity chamber” value is “a mixture of the solvate and the amorphous form”.

In general, solubility refers to the concentration that dissolves in the medium under given conditions. On to `Cc1cc(OC[P@@]2(=O)OCC[C@@H](c3cccc(Cl)c3)O2)cc(C)c1Cc1ccc(O)c(C(C)C)c1` [Starting Material A], for which the solubility in data set [2] (methyl ethyl ketone, thermodynamic from solid, methy ethyl ketone) is over 480 mg/mL; in data set [2] (thermodynamic from solid, 1-octanol) it was over 200 mg/mL; in data set [2] (thermodynamic from solid, 2,2,2-trifluoroethanol), about 195 mg/mL (≈ 379 mM); in data set [2] (thermodynamic from solid, EtOAc), about 772 mg/mL (≈ 1500 mM); in data set [2] (thermodynamic from solid, EtOAc/n-heptane 75:25 v/v) it was over 200 mg/mL; in data set [2] (thermodynamic from solid, N-methyl-2-pyrrolidone (NMP)), over 200 mg/mL. Besides, the solubility in data set [2] (thermodynamic from solid, THF) is over 384 mg/mL; in data set [2] (thermodynamic from solid, THF/water 75:25 v/v), 190 mg/mL (≈ 369 mM); in data set [2] (thermodynamic from solid, acetic acid), over 200 mg/mL; in data set [2] (thermodynamic from solid, acetone/n-heptane 75:25 v/v), over 200 mg/mL; in data set [2] (thermodynamic from solid, acetone/water 75:25 v/v), over 200 mg/mL; in data set [2] (thermodynamic from solid, acetonitrile), over 480 mg/mL. For the same compound, the solubility in data set [2] (thermodynamic from solid, acetonitrile/water 75:25 v/v) was over 200 mg/mL; in data set [2] (thermodynamic from solid, chloroform), over 388 mg/mL; in data set [2] (thermodynamic from solid, dichloromethane) it was over 480 mg/mL; in data set [2] (thermodynamic from solid, ethanol), over 200 mg/mL; in data set [2] (thermodynamic from solid, ethanol/n-heptane 75:25 v/v), over 200 mg/mL; in data set [2] (thermodynamic from solid, ethanol/water 75:25 v/v) it was over 200 mg/mL. In addition, the solubility in data set [2] (thermodynamic from solid, methyl nonafluorobutyl ether) is under 39 mg/mL; in data set [2] (thermodynamic from solid, methylcyclohexane), under 40 mg/mL; in data set [2] (thermodynamic from solid, n-heptane) it was under 38 mg/mL; in data set [2] (thermodynamic from solid, nitrobenzene), over 200 mg/mL; in data set [2] (thermodynamic from solid, pyridine), over 200 mg/mL; in data set [2] (thermodynamic from solid, tert-butyl methyl ether (TBME)), over 200 mg/mL. Further, the solubility in data set [2] (thermodynamic from solid, tetrahydrofuran (THF)/n-heptane 75:25 v/v) was over 200 mg/mL; in data set [2] (thermodynamic from solid, toluene), over 200 mg/mL.

`Cc1cc(OC[P@@]2(=O)OCC[C@@H](c3cccc(Cl)c3)O2)cc(C)c1Cc1ccc(O)c(C(C)C)c1` [Crystal form C]: the “water uptake (DVS)” value in data set [3] (FIG. 29a) is “less than 0.2 % by weight”. Further, in data set [3] (FIGS. 24 and 25), the “solid form by XRPD following DVS analysis” value is recorded as “did not transition to a different polymorph”. For the same compound, the hygroscopicity result in data set [3] (conclusion from DVS and humidity tests) is listed as “non-hygroscopic”. Also, the “solid form by XRPD after storing in humidity chamber” value in data set [1] (23° C. (room temperature), 3 days) is reported as “no transformation of the crystal form”; in data set [1] (40° C., 3 days) it was “no transformation of the crystal form”. The hydrate formation entry in data set [1] (conclusion from DVS, humidity storage and water equilibration) was “does not show any evidence of hydrate formation”. Moreover, the “water uptake measured by the Karl Fischer method” value in data set [4] is on record as under 0.2%. Moreover, the “solid form by XRPD after phase equilibration in water” value is on record as “no transformation of the crystal form” in data set [5] and “no transformation” in data set [5] (listed as crystalline Form C). The “solid form after phase equilibration in EtOAc/heptane 1:7 v/v” value in data set [6] (78° C.) and in data set [6] (room temperature) was “no transformation” throughout.
